Test results reported in US8901118B2, “Compounds and methods for kinase modulation, and indications therefor” (Plexxikon Inc., priority 2010, dated 2014).

Assays:
[1] = Relative solubility by turbidity in aqueous buffers (pH 1.5, 4.5, 6.8, 7.4); assay type: physicochemical; conditions: for turbidity threshold (L, M, H) 1.4: pH 1.5 (SGF); for turbidity threshold (L, M, H) 4.5: pH 4.5 (SIF); for turbidity threshold (L, M, H) 6.8: pH 6.8 (SIF); for turbidity threshold (L, M, H) 7.4: pH 7.4 (HEPES)
Description: As an indication of relative solubility, the turbidity of compounds in aqueous solutions is assessed. To assess possible compound properties in different physiological compartments, such as stomach, intestine, and blood, a series of aqueous buffers with varying pH is used. Thus each compound is diluted into four different physiologically relevant buffers and solution turbidity is measured by spectrophotometry.
Compounds are dissolved at a concentration of 25 mM in dimethyl sulfoxide, then serially diluted 1:1 into a 96 well plate, diluting 10 times in pure dimethyl sulfoxide, with the final well of each row a dimethyl sulfoxide blank. In an assay plate, 99 μL of appropriate buffer is added to each well, and 1 μL of each sample dilution is added to the buffer, achieving a range of final total concentrations in aqueous solutions having different pH. The buffers used are Simulated Gastric Fluid (SGF-pH 1.5) 0.5M NaCl, pH 1.5; Simulated Intestinal fluid (SIF-pH 4.5 and pH 6.8) 0.05M NaH2PO4, pH 4.5 and 6.8; and Hepes Buffer (HEPES-pH 7.4) 10 mM HEPES, 150 mM NaCl, pH 7.4. Control compounds pyrene, estriol and propranolol HCl are also assessed. Plates are spun and then mixed for 1 minute, and the absorbance is read using a Tecan Safire II to read wavelengths in the visible range (490, 535, and 650 nm) at four locations per well, reflecting the degree of turbidity present. The average optical density for each wavelength in each well is graphed vs. compound concentration, and the concentration at which the curve crosses a threshold O.D. of 0.01 for each wavelength is reported as the endpoint turbidity assay result. The average of the three wavelengths is used to compare turbidity of compounds.

CYP1A2 = target: T1, CYP1A2 (Homo sapiens, UniProt P05177); experiment: CYP1A2 inhibition (fluorescent substrate CEC); assay type: in vitro ADME; conditions: read-out: Cyp IC50 1A2
T1 sequence (P05177 1-516): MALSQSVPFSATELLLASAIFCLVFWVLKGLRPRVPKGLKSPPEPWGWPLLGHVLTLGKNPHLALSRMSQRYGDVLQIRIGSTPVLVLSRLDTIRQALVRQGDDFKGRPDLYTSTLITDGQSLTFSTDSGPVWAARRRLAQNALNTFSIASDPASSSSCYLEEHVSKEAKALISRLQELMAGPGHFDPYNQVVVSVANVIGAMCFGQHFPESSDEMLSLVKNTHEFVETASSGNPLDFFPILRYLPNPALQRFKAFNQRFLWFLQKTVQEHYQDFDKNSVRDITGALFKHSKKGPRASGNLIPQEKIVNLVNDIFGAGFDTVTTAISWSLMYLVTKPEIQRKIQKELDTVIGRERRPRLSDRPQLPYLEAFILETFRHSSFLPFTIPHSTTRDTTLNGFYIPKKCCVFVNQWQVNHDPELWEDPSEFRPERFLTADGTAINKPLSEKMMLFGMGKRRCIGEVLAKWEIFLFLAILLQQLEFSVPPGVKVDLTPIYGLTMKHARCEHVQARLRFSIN
Description: (§1) CYP (Cytochrome P450) enzymes are the major drug metabolizing enzymes present in the liver. The inhibition of CYP enzyme activity (IC50) for each of CYP1A2, CYP2C19, CYP2C9, CYP2D6, CYP3A4(BFC) and CYP3A4(BQ) is determined for compounds, where inhibition of metabolism of a known substrate leads to a decrease in the fluorescence of the metabolized product. The fluorescence of the product is monitored as a function of compound concentration. Compounds are dissolved in DMSO to a concentration of 100 mM. These are diluted 1 μL into 82 μL of acetonitrile. An 11 μL aliquot of this solution is then added to 204 μL of cofactor mix (1.3% NADPH Regeneration system Solution A, 1.04% NADPH Regeneration system Solution B from BD Biosciences, 5% acetonitrile and 0.05% DMSO). These are then serially diluted 1:1 (160 μL to 160 μL co-factor mix) for a total of 10 points. A 10 μL aliquot of this final mixture is dispensed into 384 well assay plates and incubated for 10 minutes at 37° C. […] Assay plates are incubated at 37° C. (CYP1A2-15 min; CYP2C9-45 min; CYP2C19, 2D6 and 3A4-30 min) and read in a Tecan Safire 2 plate reader (CYP1A2, 2C19 and 3A4 409 ex/460 em; CYP2C9 and 2D6 409 ex/530 em). The signal versus compound concentration is used to determine the IC50. The enzymes and substrates for this assay are obtained from BD Biosciences.

CYP3A4(BFC) = CYP3A4(BFC) (Homo sapiens, UniProt P08684); experiment: CYP3A4(BFC) inhibition; assay type: in vitro ADME; conditions: CYP3A4, substrate BFC; read-out: Cyp IC50 3A4(BFC)
CYP3A4(BFC), sequence (P08684 whole entry): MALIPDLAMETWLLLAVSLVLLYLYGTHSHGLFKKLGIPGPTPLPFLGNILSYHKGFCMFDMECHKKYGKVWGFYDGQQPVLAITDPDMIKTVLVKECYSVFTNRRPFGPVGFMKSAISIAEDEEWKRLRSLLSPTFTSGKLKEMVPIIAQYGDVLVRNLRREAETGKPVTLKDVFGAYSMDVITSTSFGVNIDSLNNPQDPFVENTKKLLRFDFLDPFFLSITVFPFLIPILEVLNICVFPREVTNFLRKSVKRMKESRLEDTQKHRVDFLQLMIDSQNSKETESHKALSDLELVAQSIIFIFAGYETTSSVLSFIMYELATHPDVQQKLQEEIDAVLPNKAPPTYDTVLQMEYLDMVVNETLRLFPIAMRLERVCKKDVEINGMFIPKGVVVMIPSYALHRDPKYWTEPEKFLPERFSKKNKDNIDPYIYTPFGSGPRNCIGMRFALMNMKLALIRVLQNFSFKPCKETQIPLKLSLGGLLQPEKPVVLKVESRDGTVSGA
Description: as §1

SMILES	IC50 (CYP1A2)	IC50 (CYP3A4(BFC))	turbidity threshold (L, M, H) 1.4 [1]	turbidity threshold (L, M, H) 4.5 [1]	turbidity threshold (L, M, H) 6.8 [1]	turbidity threshold (L, M, H) 7.4 [1]
CCCNc1ncnc2[nH]cc(C(=O)c3ccc(Nc4ccc(OC)nc4)nc3F)c12 [Compound P-4068, [2-fluoro-6-[(6-methoxy-3-pyridyl)amino]-3-pyridyl]-[4-(propylamino)-7H-pyrrolo[2,3-d]pyrimidin-5-yl]methanone]	> 10 µM	> 10 µM	H (high solubility if the threshold concentration is >250 μm)	M (moderate solubility if the threshold concentration is 31.3 μM to 250 μM)	M (moderate solubility if the threshold concentration is 31.3 μM to 250 μM)	M (moderate solubility if the threshold concentration is 31.3 μM to 250 μM)
COc1ccc(Nc2ccc(C(=O)c3c[nH]c4ncnc(NCc5ccc(C(F)(F)F)nc5)c34)c(F)n2)cn1 [Compound P-4071, [2-fluoro-6-[(6-methoxy-3-pyridyl)amino]-3-pyridyl]-[4-[[6-(trifluoromethyl)-3-pyridyl]methylamino]-7H-pyrrolo[2,3-d]pyrimidin-5-yl]methanone]	> 10 µM	> 10 µM	M (moderate solubility if the threshold concentration is 31.3 μM to 250 μM)	M (moderate solubility if the threshold concentration is 31.3 μM to 250 μM)	M (moderate solubility if the threshold concentration is 31.3 μM to 250 μM)	M (moderate solubility if the threshold concentration is 31.3 μM to 250 μM)
COc1ccc(Nc2ccc(C(=O)c3c[nH]c4ncnc(N[C@@H](C)c5ccc(F)cc5)c34)c(F)n2)cn1 [Compound P-4072, [2-fluoro-6-[(6-methoxy-3-pyridyl)amino]-3-pyridyl]-[4-[[(1S)-1-(4-fluorophenyl)ethyl]amino]-7H-pyrrolo[2,3-d]pyrimidin-5-yl]methanone]	> 10 µM	> 10 µM	M (moderate solubility if the threshold concentration is 31.3 μM to 250 μM)	L (low solubility if the threshold concentration is <31.3 μM)	L (low solubility if the threshold concentration is <31.3 μM)	L (low solubility if the threshold concentration is <31.3 μM)
COc1ccc(Nc2ccc(C(=O)c3c[nH]c4ncnc(NC5CCC5)c34)c(F)n2)cn1 [Compound P-4076, [4-(cyclobutylamino)-7H-pyrrolo[2,3-d]pyrimidin-5-yl]-[2-fluoro-6-[(6-methoxy-3-pyridyl)amino]-3-pyridyl]methanone]	> 10 µM	> 10 µM	M (moderate solubility if the threshold concentration is 31.3 μM to 250 μM)	M (moderate solubility if the threshold concentration is 31.3 μM to 250 μM)	M (moderate solubility if the threshold concentration is 31.3 μM to 250 μM)	L (low solubility if the threshold concentration is <31.3 μM)
CCC(CC)Nc1ncnc2[nH]cc(C(=O)c3ccc(Nc4ccc(OC)nc4)nc3F)c12 [Compound P-4077, [4-(1-ethylpropylamino)-7H-pyrrolo[2,3-d]pyrimidin-5-yl]-[2-fluoro-6-[(6-methoxy-3-pyridyl)amino]-3-pyridyl]methanone]	5 to 10 µM	> 10 µM	M (moderate solubility if the threshold concentration is 31.3 μM to 250 μM)	L (low solubility if the threshold concentration is <31.3 μM)	L (low solubility if the threshold concentration is <31.3 μM)	L (low solubility if the threshold concentration is <31.3 μM)

The next lines start with results.

IC50 (CYP1A2)	IC50 (CYP3A4(BFC))	SMILES	turbidity threshold (L, M, H) 1.4 [1]	turbidity threshold (L, M, H) 4.5 [1]	turbidity threshold (L, M, H) 6.8 [1]	turbidity threshold (L, M, H) 7.4 [1]
> 10 µM	> 10 µM	COc1ccc(Nc2ccc(C(=O)c3c[nH]c4ncnc(N5CCOCC5)c34)c(F)n2)cn1 [Compound P-4070, [2-fluoro-6-[(6-methoxy-3-pyridyl)amino]-3-pyridyl]-(4-morpholino-7H-pyrrolo[2,3-d]pyrimidin-5-yl)methanone]	H (high solubility if the threshold concentration is >250 μm)	M (moderate solubility if the threshold concentration is 31.3 μM to 250 μM)	M (moderate solubility if the threshold concentration is 31.3 μM to 250 μM)	M (moderate solubility if the threshold concentration is 31.3 μM to 250 μM)
> 10 µM	> 10 µM	COc1ccc(Nc2ccc(C(=O)c3c[nH]c4ncnc(NCC5CCCO5)c34)c(F)n2)cn1 (stereo not drawn) [Compound P-4073, [2-fluoro-6-[(6-methoxy-3-pyridyl)amino]-3-pyridyl]-[4-(tetrahydrofuran-2-ylmethylamino)-7H-pyrrolo[2,3-d]pyrimidin-5-yl]methanone]	M (moderate solubility if the threshold concentration is 31.3 μM to 250 μM)	L (low solubility if the threshold concentration is <31.3 μM)	L (low solubility if the threshold concentration is <31.3 μM)	L (low solubility if the threshold concentration is <31.3 μM)
> 10 µM	> 10 µM	CCN1CCC(Nc2ncnc3[nH]cc(C(=O)c4ccc(Nc5ccc(OC)nc5)nc4F)c23)CC1 [Compound P-4074, [4-[(1-ethyl-4-piperidyl)amino]-7H-pyrrolo[2,3-d]pyrimidin-5-yl]-[2-fluoro-6-[(6-methoxy-3-pyridyl)amino]-3-pyridyl]methanone]	H (high solubility if the threshold concentration is >250 μm)	M (moderate solubility if the threshold concentration is 31.3 μM to 250 μM)	M (moderate solubility if the threshold concentration is 31.3 μM to 250 μM)	M (moderate solubility if the threshold concentration is 31.3 μM to 250 μM)
> 10 µM	> 10 µM	COc1ccc(Nc2ccc(C(=O)c3c[nH]c4ncnc(NC5CCCC5)c34)c(F)n2)cn1 [Compound P-4075, [4-(cyclopentylamino)-7H-pyrrolo[2,3-d]pyrimidin-5-yl]-[2-fluoro-6-[(6-methoxy-3-pyridyl)amino]-3-pyridyl]methanone]	M (moderate solubility if the threshold concentration is 31.3 μM to 250 μM)	L (low solubility if the threshold concentration is <31.3 μM)	L (low solubility if the threshold concentration is <31.3 μM)	L (low solubility if the threshold concentration is <31.3 μM)
